Reference: paper PMC7377239, “Cardiovascular Effects of Polychlorinated Biphenyls and Their Major Metabolites” (Environmental Health Perspectives, 2020)
Read-outs that look alike come from different tables or passages of the source.

Experiments:
[1] = tested on: iCell endothelial cells (human iPSC-derived ECs); assay: Tube formation (tubulogenesis) assay in iCell endothelial cells, 18 h; assay type: cell-based; conditions: Homo sapiens, Endothelial cell, iPSC-EC tube formation, 18 hr; for activity at 0.1 µM: 0.10 µM; for minimal effective concentration: top concentration 100.00 µM
Procedure, shortened: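 Tube formation was measured by calcein AM imaging after overnight compound exposure (37°C, 0.5% DMSO vehicle) of human iPSC-derived ECs, 7,500/well, on reduced-growth-factor Geltrex in starvation medium. Vehicle-normalized data fitted to four-parameter logistic; POD set at one vehicle SD; without response, 100 μM taken as NOAEL.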

[2] = tested on: iCell endothelial cells (human iPSC-derived ECs); assay: High-content imaging cytotoxicity in iCell endothelial cells, 24 h; assay type: cell-based; conditions: Homo sapiens, Endothelial cell, iPSC-EC, 24 hr; for viability at 0.1 µM / activity at 0.1 µM: 0.10 µM; for minimal effective concentration: top concentration 100.00 µM
Procedure, shortened: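 Readouts were vehicle-normalised and fitted to a four-parameter logistic model. POD was set at one SD beyond 0.5% DMSO control means, and 100 µM was assigned when no response was seen. Cells were monolayers of iCell endothelial cells imaged after 24 h compound exposure using nuclear, mitochondrial and calcein dyes.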

[3] = 0.00 µM control = 100.00, read-out: endo.mtl.18hr
[4] = 0.00 µM control = 100.00, read-out: endo.tlps.18hr
[5] = 0.00 µM control = 100.00, read-out: endo.tta.18hr
[6] = 0.00 µM control = 100.00, read-out: endo.ttl.18hr
[7] = 0.00 µM control = 100.00, read-out: endo.cyto.24hr
[8] = 0.00 µM control = 100.00, read-out: endo.mito.24hr
[9] = 0.00 µM control = 100.00, read-out: endo.mitoint.24hr
[10] = 0.00 µM control = 100.00, read-out: endo.nma.24hr
[11] = 0.00 µM control = 100.00, read-out: endo.tc.24hrs
[12] = read-out: endo.mitoint.24hr POD

In the case of COc1ccc(-c2cccc(Cl)c2)cc1Cl [4-OMe PCB11], the activity at 0.01 µM [1, 3] is reported as 115%, the activity at 0.01 µM [1, 4] is reported as 108% and the activity at 0.01 µM [1, 5] is reported as 168%. For the same compound, the activity at 0.01 µM [1, 6] was 169%, the activity at 0.1 µM [1, 3] was 114% and the activity at 0.1 µM [1, 4] was 108%. It also gave an activity at 0.1 µM [1, 5] of 134%, an activity at 0.1 µM [1, 6] of 137% and an activity at 1 µM [1, 3] of 113%. It also gave an activity at 1 µM [1, 4] of 122%, an activity at 1 µM [1, 5] of 139% and an activity at 1 µM [1, 6] of 145%. For the same compound, the activity at 10 µM [1, 3] was 95.5%, the activity at 10 µM [1, 4] was 82.3% and the activity at 10 µM [1, 5] was 105%. For the same compound, the activity at 10 µM [1, 6] was 106%, the activity at 100 µM [1, 3] was 88.4% and the activity at 100 µM [1, 4] was 63.4%. The activity at 100 µM [1, 5] was 101%, the activity at 100 µM [1, 6] was 100% and the minimal effective concentration ([1]; read-out: endo.mtl.18hr POD) was 100 µM. It also gave a minimal effective concentration ([1]; read-out: endo.tlps.18hr POD) of 28.4 µM, a minimal effective concentration ([1]; read-out: endo.tta.18hr POD) of 0.00169 µM and a minimal effective concentration ([1]; read-out: endo.ttl.18hr POD) of 0.00197 µM. The viability at 0.01 µM [2, 7] was 88.3%, the activity at 0.01 µM [2, 8] was 88.6% and the activity at 0.01 µM [2, 9] was 94.9%. The activity at 0.01 µM [2, 10] was 107%, the viability at 0.01 µM [2, 11] was 88.3% and the viability at 0.1 µM [2, 7] was 101%. The activity at 0.1 µM [2, 8] was 100%, the activity at 0.1 µM [2, 9] was 87% and the activity at 0.1 µM [2, 10] was 104%. The viability at 0.1 µM [2, 11] was 101%, the viability at 1 µM [2, 7] was 99.8% and the activity at 1 µM [2, 8] was 99.2%. It also gave an activity at 1 µM [2, 9] of 87.7%, an activity at 1 µM [2, 10] of 100% and a viability at 1 µM [2, 11] of 99.8%. For the same compound, the viability at 10 µM [2, 7] was 100%, the activity at 10 µM [2, 8] was 100% and the activity at 10 µM [2, 9] was 97.5%. For the same compound, the activity at 10 µM [2, 10] was 101%, the viability at 10 µM [2, 11] was 100% and the viability at 100 µM [2, 7] was 97.3%. The activity at 100 µM [2, 8] was 98%, the activity at 100 µM [2, 9] was 98.6% and the activity at 100 µM [2, 10] was 102%. For the same compound, the viability at 100 µM [2, 11] was 97.3%, the minimal effective concentration ([2]; read-out: endo.cyto.24hr POD) was 100 µM and the minimal effective concentration ([2]; read-out: endo.mito.24hr POD) was 100 µM. It also gave a minimal effective concentration [2, 12] of 100 µM, a minimal effective concentration ([2]; read-out: endo.nma.24hr POD) of 100 µM and a minimal effective concentration ([2]; read-out: endo.tc.24hrs POD) of 100 µM.

For Oc1ccc(-c2ccc(Cl)cc2)cc1 [4'-OH PCB3], the activity at 0.01 µM [1, 3] was 87.5%, the activity at 0.01 µM [1, 4] was 80.1% and the activity at 0.01 µM [1, 5] was 97.5%. It also gave an activity at 0.01 µM [1, 6] of 93.3%, an activity at 0.1 µM [1, 3] of 89.4% and an activity at 0.1 µM [1, 4] of 84.6%. It also gave an activity at 0.1 µM [1, 5] of 89.9%, an activity at 0.1 µM [1, 6] of 86.6% and an activity at 1 µM [1, 3] of 90.3%. For the same compound, the activity at 1 µM [1, 4] was 73.5%, the activity at 1 µM [1, 5] was 82.7% and the activity at 1 µM [1, 6] was 81.3%. For the same compound, the activity at 10 µM [1, 3] was 55.5%, the activity at 10 µM [1, 4] was 31.4% and the activity at 10 µM [1, 5] was 35.4%. For the same compound, the activity at 10 µM [1, 6] was 35%, the activity at 100 µM [1, 3] was 49.2% and the activity at 100 µM [1, 4] was 11.3%. It also gave an activity at 100 µM [1, 5] of 0.34%, an activity at 100 µM [1, 6] of 0.48% and a minimal effective concentration ([1]; read-out: endo.mtl.18hr POD) of 1.21 µM. It also gave a minimal effective concentration ([1]; read-out: endo.tlps.18hr POD) of 0.19 µM, a minimal effective concentration ([1]; read-out: endo.tta.18hr POD) of 1.16 µM and a minimal effective concentration ([1]; read-out: endo.ttl.18hr POD) of 1.12 µM. For the same compound, the viability at 0.01 µM [2, 7] was 96.3%, the activity at 0.01 µM [2, 8] was 96.6% and the activity at 0.01 µM [2, 9] was 113%. The activity at 0.01 µM [2, 10] was 100%, the viability at 0.01 µM [2, 11] was 96.3% and the viability at 0.1 µM [2, 7] was 95%. For the same compound, the activity at 0.1 µM [2, 8] was 95.4%, the activity at 0.1 µM [2, 9] was 105% and the activity at 0.1 µM [2, 10] was 98.9%. The viability at 0.1 µM [2, 11] was 95%, the viability at 1 µM [2, 7] was 99.8% and the activity at 1 µM [2, 8] was 99.9%. It also gave an activity at 1 µM [2, 9] of 108%, an activity at 1 µM [2, 10] of 97.4% and a viability at 1 µM [2, 11] of 99.8%. It also gave a viability at 10 µM [2, 7] of 104%, an activity at 10 µM [2, 8] of 105% and an activity at 10 µM [2, 9] of 119%. For the same compound, the activity at 10 µM [2, 10] was 96%, the viability at 10 µM [2, 11] was 104% and the viability at 100 µM [2, 7] was 39.7%. It also gave an activity at 100 µM [2, 8] of 40.3%, an activity at 100 µM [2, 9] of 91.2% and an activity at 100 µM [2, 10] of 101%. It also gave a viability at 100 µM [2, 11] of 69.7%, a minimal effective concentration ([2]; read-out: endo.cyto.24hr POD) of 41.1 µM and a minimal effective concentration ([2]; read-out: endo.mito.24hr POD) of 41.1 µM. For the same compound, the minimal effective concentration [2, 12] was 100 µM, the minimal effective concentration ([2]; read-out: endo.nma.24hr POD) was 100 µM and the minimal effective concentration ([2]; read-out: endo.tc.24hrs POD) was 52 µM.
